# Patent publication US20110165266A1 (priority 2008, published 2011)
# Tested on: ASLV-A vector RCASBP(A)-AP
# Assay type: cell-based, avian sarcoma and leukosis virus (ASLV-A)
structure (smiles),measurement,value
[O-][Cl+2]([O-])O [chlorate],influence on infection by ASLV-A vector,did not influence infection
